Source: US8987195B2 (priority 2012, dated 2015)
Where two headings read alike, the source gives them in different places.

Columns and labels:
HCV genotype 1b replicon = assay: HCV replicon assay, genotype 1b replicon EC50; format: cell-based, Hepatitis C virus; details: Hepatitis C virus, genotype 1b replicon, read-out: EC50 [gt-1b]
How it was run: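 Cells harbouring a stable replicon are grown under G418 selection, then plated with test compound in G418-free medium for 24-48 hours. After washing and lysis, RNA or luciferase signal is measured and expressed as percent of DMSO control to give EC50.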

[1] = biological target: HCV NS3/4A protease genotype 1b (Hepatitis C virus genotype 1b, UniProt P26663); assay: HCV NS3/4A protease time-resolved fluorescence (TRF) assay, Ki against genotype 1b; format: biochemical; details: IC50 [gt-1b] (nM), NS3/4A genotype 1b, enzyme 0.2 nM
How it was run: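 Ki values come from IC50 fits corrected for substrate concentration and KM. The time-resolved fluorescence protease reaction used 25 nM peptide substrate, 2.5 h, room temperature, pH 7.5 HEPES buffer, after 30 min enzyme–inhibitor preincubation.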

Sequence of HCV NS3/4A protease genotype 1b (P26663 1027-1657): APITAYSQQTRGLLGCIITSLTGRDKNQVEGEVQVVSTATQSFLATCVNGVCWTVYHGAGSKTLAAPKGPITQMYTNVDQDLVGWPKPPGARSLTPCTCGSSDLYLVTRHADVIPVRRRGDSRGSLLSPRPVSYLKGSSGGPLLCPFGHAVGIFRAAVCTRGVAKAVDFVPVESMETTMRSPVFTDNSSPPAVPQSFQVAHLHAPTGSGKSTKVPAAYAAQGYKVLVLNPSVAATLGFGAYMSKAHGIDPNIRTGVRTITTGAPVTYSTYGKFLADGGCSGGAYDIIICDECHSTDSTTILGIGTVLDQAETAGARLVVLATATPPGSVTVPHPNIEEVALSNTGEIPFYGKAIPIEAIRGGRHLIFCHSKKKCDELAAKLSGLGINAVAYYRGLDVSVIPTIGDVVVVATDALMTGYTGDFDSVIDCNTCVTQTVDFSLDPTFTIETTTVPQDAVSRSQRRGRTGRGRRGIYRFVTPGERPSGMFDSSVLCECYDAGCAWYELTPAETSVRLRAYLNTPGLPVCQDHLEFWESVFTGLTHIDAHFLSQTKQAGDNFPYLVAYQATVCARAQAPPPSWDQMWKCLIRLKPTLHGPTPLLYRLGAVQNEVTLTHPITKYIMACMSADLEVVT
Sequence of HCV NS3/4A protease genotype 1b (P26663 1658-1711): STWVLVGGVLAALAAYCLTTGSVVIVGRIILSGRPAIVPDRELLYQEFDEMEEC

With `Cc1nc2ccc(C(F)(F)F)cc2c2c1O[C@]1(CC2)C[C@H]2C(=O)N[C@]3(C(=O)NS(=O)(=O)C4(C)CC4)C[C@H]3/C=C\CCCCC[C@H](NC(=O)OC3CCCC3)C(=O)N2C1` [Example 252, cyclopentyl [(2R,6S,12Z,13aS,14aR,16aS)-5′-methyl-14a-{[(1-methylcyclopropyl)sulfonyl]carbamoyl}-5,16-dioxo-9′-(trifluoromethyl)-1,1′,2′,5,6,7,8,9,10,11,13a,14,14a,15,16,16a-hexadecahydrospiro[cyclopropa[e]pyrrolo[1,2-a][1,4]diazacyclopentadecine-2,3′-pyrano[2,3-c]quinolin]-6-yl]carbamate] the EC50 (HCV genotype 1b replicon) was 44.4 nM and the IC50 [1] was 0.01 nM.

Compound `COc1ccc2nc(C)c3c(c2c1)CC[C@]1(C[C@H]2C(=O)N[C@]4(C(=O)NS(=O)(=O)C5(C)CC5)C[C@H]4/C=C\CCCCC[C@H](NC(=O)OC(C)(C)C(F)(F)F)C(=O)N2C1)O3` [Example 254, 1,1,1-trifluoro-2-methylpropan-2-yl [(2R,6S,12Z,13aS,14aR,16aS)-9′-methoxy-5′-methyl-14a-{[(1-methylcyclopropyl)sulfonyl]carbamoyl}-5,16-dioxo-1,1′,2′,5,6,7,8,9,10,11,13a,14,14a,15,16,16a-hexadecahydrospiro[cyclopropa[e]pyrrolo[1,2-a][1,4]diazacyclopentadecine-2,3′-pyrano[2,3-c]quinolin]-6-yl]carbamate] has an EC50 (HCV genotype 1b replicon; K+ salt) of 1.58 nM and an IC50 ([1]; K+ salt) of 0.01 nM.

In the case of `Cc1nc2ccc(OC(F)F)cc2c2c1O[C@]1(CC2)C[C@H]2C(=O)N[C@]3(C(=O)NS(=O)(=O)C4(C)CC4)C[C@H]3/C=C\CCCCC[C@H](NC(=O)OC(C)(C)C)C(=O)N2C1` [Example 256, tert-butyl [(2R,6S,12Z,13aS,14aR,16aS)-9′-(difluoromethoxy)-5′-methyl-14a-{[(1-methylcyclopropyl)sulfonyl]carbamoyl}-5,16-dioxo-1,1′,2′,5,6,7,8,9,10,11,13a,14,14a,15,16,16a-hexadecahydrospiro[cyclopropa[e]pyrrolo[1,2-a][1,4]diazacyclopentadecine-2,3′-pyrano[2,3-c]quinolin]-6-yl]carbamate], the EC50 (HCV genotype 1b replicon) is reported as 3.08 nM and the IC50 [1] is reported as 0.005 nM.

`Cc1nc2ccccc2c2c1O[C@]1(CC2)C[C@H]2C(=O)N[C@]3(C(=O)NS(=O)(=O)C4(C)CC4)C[C@H]3/C=C\CCCCC[C@H](NC(=O)OC3C[C@H]4C=C[C@@H]3C4)C(=O)N2C1` (stereo partly drawn) [Example 257, (1S,4S)-bicyclo[2.2.1]hept-5-en-2-yl [(2R,6S,12Z,13aS,14aR,16aS)-5′-methyl-14a-{[(1-methylcyclopropyl)sulfonyl]carbamoyl}-5,16-dioxo-1,1′,2′,5,6,7,8,9,10,11,13a,14,14a,15,16,16a-hexadecahydrospiro[cyclopropa[e]pyrrolo[1,2-a][1,4]diazacyclopentadecine-2,3′-pyrano[2,3-c]quinolin]-6-yl]carbamate] gave an EC50 (HCV genotype 1b replicon) of 3.25 nM and an IC50 [1] of 0.018 nM.

Work on `Cc1nc2ccccc2c2c1O[C@]1(CC2)C[C@H]2C(=O)N[C@]3(C(=O)NS(=O)(=O)C4(C)CC4)C[C@H]3/C=C\CCCCC[C@H](NC(=O)OC(C(F)(F)F)C(F)(F)F)C(=O)N2C1` [Example 258, 1,1,1,3,3,3-hexafluoropropan-2-yl [(2R,6S,12Z,13aS,14aR,16aS)-5′-methyl-14a-{[(1-methylcyclopropyl)sulfonyl]carbamoyl}-5,16-dioxo-1,1′,2′,5,6,7,8,9,10,11,13a,14,14a,15,16,16a-hexadecahydrospiro[cyclopropa[e]pyrrolo[1,2-a][1,4]diazacyclopentadecine-2,3′-pyrano[2,3-c]quinolin]-6-yl]carbamate] yielded an EC50 (HCV genotype 1b replicon) of 717 nM and an IC50 [1] of 0.022 nM.

Work on `COc1ccc2nc(C)c3c(c2c1)C(F)(F)C[C@]1(C[C@H]2C(=O)N[C@]4(C(=O)NS(=O)(=O)C5(C)CC5)C[C@H]4/C=C\CCCCC[C@H](NC(=O)OC4CCCC4)C(=O)N2C1)O3` [Example 260, cyclopentyl [(2S,6S,12Z,13aS,14aR,16aS)-1′,1′-difluoro-9′-methoxy-5′-methyl-14a-{[(1-methylcyclopropyl)sulfonyl]carbamoyl}-5,16-dioxo-1,1′,2′,5,6,7,8,9,10,11,13a,14,14a,15,16,16a-hexadecahydrospiro[cyclopropa[e]pyrrolo[1,2-a][1,4]diazacyclopentadecine-2,3′-pyrano[2,3-c]quinolin]-6-yl]carbamate] yielded an EC50 (HCV genotype 1b replicon) of 5.22 nM and an IC50 [1] of 0.006 nM.

`COc1ccc2nc(C)c3c(c2c1)CC[C@]1(C[C@H]2C(=O)N[C@]4(C(=O)NS(=O)(=O)C5(C)CC5)C[C@H]4/C=C\CCCCC[C@H](NC(=O)OC4CC5CC(=O)OC5C4)C(=O)N2C1)O3` (stereo partly drawn) [Example 261, 2-oxohexahydro-2H-cyclopenta[b]furan-5-yl [(2R,6S,12Z,13aS,14aR,16aS)-9′-methoxy-5′-methyl-14a-{[(1-methylcyclopropyl)sulfonyl]carbamoyl}-5,16-dioxo-1,1′,2′,5,6,7,8,9,10,11,13a,14,14a,15,16,16a-hexadecahydrospiro[cyclopropa[e]pyrrolo[1,2-a][1,4]diazacyclopentadecine-2,3′-pyrano[2,3-c]quinolin]-6-yl]carbamate] gave an EC50 (HCV genotype 1b replicon) of 192 nM and an IC50 [1] of 0.008 nM.

With `COc1ccc2nc(C)c3c(c2c1)C(F)(F)C[C@]1(C[C@H]2C(=O)N[C@]4(C(=O)NS(=O)(=O)C5(C)CC5)C[C@H]4/C=C\CCCCC[C@H](NC(=O)O[C@H](C)C(C)C)C(=O)N2C1)O3` [Example 263, (2R)-3-methylbutan-2-yl [(2S,6S,12Z,13aS,14aR,16aS)-1′,1′-difluoro-9′-methoxy-5′-methyl-14a-{[(1-methylcyclopropyl)sulfonyl]carbamoyl}-5,16-dioxo-1,1′,2′,5,6,7,8,9,10,11,13a,14,14a,15,16,16a-hexadecahydrospiro[cyclopropa[e]pyrrolo[1,2-a][1,4]diazacyclopentadecine-2,3′-pyrano[2,3-c]quinolin]-6-yl]carbamate] the EC50 (HCV genotype 1b replicon; K+ salt) was 5.3 nM and the IC50 ([1]; K+ salt) was 0.007 nM.

For `COc1ccc2nc(C)c3c(c2c1)C(F)(F)C[C@]1(C[C@H]2C(=O)N[C@]4(C(=O)NS(=O)(=O)C5(C)CC5)C[C@H]4/C=C\CCCCC[C@H](NC(=O)O[C@@H](C)C(C)C)C(=O)N2C1)O3` [Example 264, (2S)-3-methylbutan-2-yl [(2S,6S,12Z,13aS,14aR,16aS)-1′,1′-difluoro-9′-methoxy-5′-methyl-14a-{[(1-methylcyclopropyl)sulfonyl]carbamoyl}-5,16-dioxo-1,1′,2′,5,6,7,8,9,10,11,13a,14,14a,15,16,16a-hexadecahydrospiro[cyclopropa[e]pyrrolo[1,2-a][1,4]diazacyclopentadecine-2,3′-pyrano[2,3-c]quinolin]-6-yl]carbamate], the EC50 (HCV genotype 1b replicon; K+ salt) was 4.3 nM and the IC50 ([1]; K+ salt) was 0.013 nM.

With `COc1ccc2nc(C)c3c(c2c1)C(F)(F)C[C@]1(C[C@H]2C(=O)N[C@]4(C(=O)NS(=O)(=O)C5(C)CC5)C[C@H]4/C=C\CCCCC[C@H](NC(=O)OC(C)(C)C(F)(F)F)C(=O)N2C1)O3` [Example 265, 1,1,1-trifluoro-2-methylpropan-2-yl [(2S,6S,12Z,13aS,14aR,16aS)-1′,1′-difluoro-9′-methoxy-5′-methyl-14a-{[(1-methylcyclopropyl)sulfonyl]carbamoyl}-5,16-dioxo-1,1′,2′,5,6,7,8,9,10,11,13a,14,14a,15,16,16a-hexadecahydrospiro[cyclopropa[e]pyrrolo[1,2-a][1,4]diazacyclopentadecine-2,3′-pyrano[2,3-c]quinolin]-6-yl]carbamate] the EC50 (HCV genotype 1b replicon; K+ salt) was 3.35 nM and the IC50 ([1]; K+ salt) was 0.007 nM.

`Cc1nc2ccc(OC(F)F)cc2c2c1O[C@]1(CC2)C[C@H]2C(=O)N[C@]3(C(=O)NS(=O)(=O)C4(C)CC4)C[C@H]3/C=C\CCCCC[C@H](NC(=O)OCC(C)C)C(=O)N2C1` [Example 267, 2-methylpropyl [(2R,6S,12Z,13aS,14aR,16aS)-9′-(difluoromethoxy)-5′-methyl-14a-{[(1-methylcyclopropyl)sulfonyl]carbamoyl}-5,16-dioxo-1,1′,2′,5,6,7,8,9,10,11,13a,14,14a,15,16,16a-hexadecahydrospiro[cyclopropa[e]pyrrolo[1,2-a][1,4]diazacyclopentadecine-2,3′-pyrano[2,3-c]quinolin]-6-yl]carbamate] showed an EC50 (HCV genotype 1b replicon; K+ salt) of 3.56 nM and an IC50 ([1]; K+ salt) of 0.006 nM.

`Cc1nc2ccc(OC(F)F)cc2c2c1O[C@]1(CC2)C[C@H]2C(=O)N[C@]3(C(=O)NS(=O)(=O)C4(C)CC4)C[C@H]3/C=C\CCCCC[C@H](NC(=O)OC3CCCC3)C(=O)N2C1` [Example 268, cyclopentyl [(2R,6S,12Z,13aS,14aR,16aS)-9′-(difluoromethoxy)-5′-methyl-14a-{[(1-methylcyclopropyl)sulfonyl]carbamoyl}-5,16-dioxo-1,1′,2′,5,6,7,8,9,10,11,13a,14,14a,15,16,16a-hexadecahydrospiro[cyclopropa[e]pyrrolo[1,2-a][1,4]diazacyclopentadecine-2,3′-pyrano[2,3-c]quinolin]-6-yl]carbamate] was tested, and the EC50 (HCV genotype 1b replicon; K+ salt) was 4.03 nM and the IC50 ([1]; K+ salt) was 0.003 nM.
